According to patent publication US20050203482A1, “Pharmaceutical dispensing apparatus and method” (priority 2004, published 2005):
Values after ≈ are worked out from the molar mass of the structure shown.

Assay: physchem
Description: The solvents and co-solvents are listed by percentage of volume.

**Q.** Which solubility (aqueous with cosolvent or surfactant or cyclodextrin, solvent 2-P 56%, co-solvent Water 44%, approximate) does the source give for `C[C@H]1O[C@@H](O[C@H]2[C@@H](O)C[C@H](O[C@H]3[C@@H](O)C[C@H](O[C@H]4CC[C@@]5(C)[C@H](CC[C@@H]6[C@@H]5C[C@@H](O)[C@]5(C)[C@@H](C7=CC(=O)OC7)CC[C@]65O)C4)O[C@@H]3C)O[C@@H]2C)C[C@H](O)[C@@H]1O` [Digoxin] here?
**A.** 56 mg/mL (≈ 71.7 mM)

**Q.** And the solubility (aqueous with cosolvent or surfactant or cyclodextrin, solvent 55% Water, co-solvent 45% H-107, approximate)?
**A.** 52 mg/mL (≈ 66.6 mM)

**Q.** What about the solubility (aqueous with cosolvent or surfactant or cyclodextrin, solvent Ethanol 80%, co-solvent Water 17%, additive Glycerin 3%, approximate) of the same compound?
**A.** 9 mg/mL (≈ 11.5 mM)

**Q.** And the solubility (organic solvent or mixture, solvent 1,5-pentanediol, approximate)?
**A.** < 21.9 mg/mL

**Q.** And the solubility (organic solvent or mixture, solvent 2-P 80%, co-solvent Ethanol 20%, approximate)?
**A.** ≥ 75 mg/mL

**Q.** What about the solubility (organic solvent or mixture, solvent 2-P 100%, approximate) of the same compound?
**A.** 102 mg/mL (≈ 131 mM)

**Q.** What about the solubility (organic solvent or mixture, solvent Acetone, approximate) of the same compound?
**A.** < 30 mg/mL

**Q.** What about the solubility (organic solvent or mixture, solvent DMSO 80%, co-solvent (EtOH) ethanol alcohol 20%, approximate) of the same compound?
**A.** 200 mg/mL (≈ 256 mM)

**Q.** And the solubility (organic solvent or mixture, solvent Ethanol 100%, approximate)?
**A.** 9 mg/mL (≈ 11.5 mM)

**Q.** And the solubility (organic solvent or mixture, solvent Ethyl acetate, approximate)?
**A.** < 16.3 mg/mL

**Q.** And the solubility (organic solvent or mixture, solvent Ethylene glycol (LEG), approximate)?
**A.** < 16.3 mg/mL

**Q.** What about the solubility (organic solvent or mixture, solvent Glycerine, approximate) of the same compound?
**A.** < 14.2 mg/mL

**Q.** What about the solubility (organic solvent or mixture, solvent Polyethylene glycol 400 90% Absolute ethanol 6%, co-solvent Water 1%, additive Propylene glycol 3%, approximate) of the same compound?
**A.** 0.25 mg/mL (≈ 0.32 mM)

**Q.** And the solubility (organic solvent or mixture, solvent Polyethylene glycols (PEGs), approximate)?
**A.** < 19.3 mg/mL

**Q.** And the solubility (water, solvent Water, approximate)?
**A.** 0.024 to 0.07 mg/mL (≈ 0.0307 to 0.0896 mM)
